This passage reports IC50 results from patent US20260085082A1, “KDM1A INHIBITORS FOR THE TREATMENT OF DISEASE” (Imago Biosciences, Inc., priority 2022, published 2026).

Molecules are shown by their SMILES. Like-named read-outs stand apart in the source and are kept apart here.

For one experiment, the target named is LSD1 (Homo sapiens, UniProt O60341). In words: LSD1 10-dose IC50 fluorescence coupling enzyme assay (HRP/Amplex Red, resorufin). Format: biochemical. The following applies: 10 M histone H3(1-21)K4me2 peptide substrate; 3-fold serial dilution in duplicate starting at 100 μM. How it is done: Compounds were tested in a 10-dose IC50 mode fluorescence coupling enzyme assay with 3-fold serial dilution in duplicate starting at 100 μM. The production of FAD-dependent H2O2 as a result of demethylase activity of LSD1 on […] histone H3(1-21)K4me2 peptide substrate was measured by coupling with HRP and Amplex Red to yield resorufin (fluorescence measured at Ex/Em=535/590 nm on EnVision, Perkin Elmer).

Another experiment relates to MV4;11 cells. In words: Cell Titer-Glo Luminescent Cell Viability Assay, cell growth inhibition against MV4;11 cells. The class given is cell-based. The following applies: Homo sapiens. How it is done: Cell growth inhibition against MV4;11 cells was confirmed for the synthetic compounds. The Cell Titer-Glo Luminescent Cell Viability Assay (Promega, USA) was used to determine the number of viable cells in culture based on quantitation of the ATP present, which signals the presence of metabolically active cells. This assay was run in a 96-well plate format arrayed in a 10-point dose curve, ranging from 0 to 50 μM with 4-fold dilutions for each compound. Cells are seeded on Day 0 at 3750 cells per well. At Day 5, a portion of each well is assayed for viability according to the Cell Titer-Glo protocol. Briefly, cells/plates were centrifuged at 1100×g for 5 minutes. 100 μL of media was removed from each well and replaced with 100 μL of CellTiter-Glo. The plates were shaken at room temperature for 10 minutes and measured on a luminescence plate reader. Another portion of each well from the Day 5 plate is used to seed a new 96 plate containing fresh compound and media set up in the equivalent 10-point dose curve array in order to continue the cell growth inhibition assay for another 5 days. A final timepoint is collected at Day 10 using the Cell Titer-Glo protocol. Luminescence was detected on an EnVision® Multilabel Plate Reader (Perkin Elmer, Waltham, Mass.) and IC50 determination was made using Graph Pad Prism software.
For orientation: Cellular ATP, detected with luciferase, serves as a proxy for viable cell number.

[1] abbreviates: MV4-11, 120 h, MV4;11 cells, Day 5, 10-point dose curve 0 to 50 μM, read-out: Cell Titer Glo IC50 (5 d).
The mark [2] stands for this setting: MV4-11, MV4;11 cells, Day 10 (re-seeded at Day 5 with fresh compound), 10-point dose curve 0 to 50 μM, read-out: Cell Titer Glo IC50 (10 d).

As for `COc1ccc(-n2nc(C(=O)N3CC(CN)C3)cc2-c2ccc(C#N)c(F)c2)cc1` [Example 32, 4-(3-(3-(Aminomethyl)azetidine-1-carbonyl)-1-(4-methoxyphenyl)-1H-pyrazol-5-yl)-2-fluorobenzonitrile 2,2,2-trifluoroacetate], the IC50 on LSD1 and with MV4;11 cells (setting [1]) was 1 to 10 µM each time.
Regarding `COc1ccc(-n2nc(C(=O)NC3CCCNC3)cc2-c2ccc(C#N)cc2)cc1` (stereo not shown) [Example 3, 5-(4-Cyanophenyl)-1-(4-methoxyphenyl)-N-(piperidin-3-yl)-1H-pyrazole-3-carboxamide 2,2,2-trifluoroacetate], the IC50 at LSD1 and in the experiment on MV4;11 cells (setting [1]) was 1 to 10 µM each time.
Turning to `COC1CCN(c2ccc(-n3nc(-c4ccc(C#N)c(F)c4)cc3C(=O)N3CCC[C@@H](N)C3)cc2)CC1` [Example 57, (R)-4-(5-(3-aminopiperidine-1-carbonyl)-1-(4-(4-methoxypiperidin-1-yl)phenyl)-1H-pyrazol-3-yl)-2-fluorobenzonitrile 2,2,2-trifluoroacetate], the IC50 (commonly the concentration that inhibits the measured activity by half) was less than 0.5 µM against LSD1 and 1 to 10 µM in the experiment on MV4;11 cells (setting [2]).
For `COc1ccc(-n2nc(C(=O)N[C@H]3CCC[C@H](N)C3)cc2-c2ccc(C#N)c(F)c2)cc1` [Example 25, N-((1S,3S)-3-aminocyclohexyl)-5-(4-cyano-3-fluorophenyl)-1-(4-methoxyphenyl)-1H-pyrazole-3-carboxamide 2,2,2-trifluoroacetate], the IC50 at LSD1 and in the experiment with MV4;11 cells (setting [1]) was 1 to 10 µM each time.
`N#Cc1ccc(-c2cc(C(=O)N3CCC[C@@H](N)C3)nn2-c2ccc(-c3ccc4c(c3)OCCO4)cc2)cc1F` [Example 85, (R)-4-(3-(3-aminopiperidine-1-carbonyl)-1-(4-(2,3-dihydrobenzo[b][1,4]dioxin-6-yl)phenyl)-1H-pyrazol-5-yl)-2-fluorobenzonitrile 2,2,2-trifluoroacetate]: the IC50 on LSD1 and in the experiment on MV4;11 cells (setting [2]) was less than 0.5 µM each time.
As for `COc1ccc(-n2nc(C(=O)NC3CCCC(N)C3)cc2-c2ccc(C#N)c(F)c2)cc1` (stereo not shown) [Example 20, N-(3-aminocyclohexyl)-5-(4-cyano-3-fluorophenyl)-1-(4-methoxyphenyl)-1H-pyrazole-3-carboxamide 2,2,2-trifluoroacetate], the IC50 against LSD1 and in the experiment on MV4;11 cells (setting [1]) was 1 to 10 µM in each case.
Regarding `COc1ccc(-n2nc(C(=O)N[C@@H]3CCC[C@H](N)C3)cc2-c2ccc(C#N)c(F)c2)cc1` [Example 28, N-((1R,3S)-3-aminocyclohexyl)-5-(4-cyano-3-fluorophenyl)-1-(4-methoxyphenyl)-1H-pyrazole-3-carboxamide 2,2,2-trifluoroacetate], the values for the IC50 on LSD1 and in the experiment with MV4;11 cells (setting [1]) were 0.5 to 1 µM and 1 to 10 µM, respectively.
For `COc1ccc(-n2cc(C(=O)N3CCC(N)CC3)c(-c3ccc(C#N)cc3)n2)cc1` [Example 86, 4-(4-(4-aminopiperidine-1-carbonyl)-1-(4-methoxyphenyl)-1H-pyrazol-3-yl)benzonitrile], the IC50 on LSD1 and in the experiment on MV4;11 cells (setting [1]) was more than 10 µM in each case.
Regarding `CN1CCN(c2ccc(-n3nc(C(=O)N4CCC[C@@H](N)C4)cc3-c3ccc(C#N)c(F)c3)nc2)CC1` [Example 54, (R)-4-(3-(3-aminopiperidine-1-carbonyl)-1-(5-(4-methylpiperazin-1-yl)pyridin-2-yl)-1H-pyrazol-5-yl)-2-fluorobenzonitrile 2,2,2-trifluoroacetate], the half-maximal inhibitory concentration (IC50) against LSD1 and in the experiment with MV4;11 cells (setting [2]) was 1 to 10 µM in each case.
For `COc1ccc(-n2nc(-c3ccc(C#N)cc3)cc2C(=O)N2CCCC(N)C2)cc1` (stereo not shown) [Example 4, 4-(5-(3-Aminopiperidine-1-carbonyl)-1-(4-methoxyphenyl)-1H-pyrazol-3-yl)benzonitrile], the values for the IC50 against LSD1 and in the experiment on MV4;11 cells (setting [1]) were less than 0.5 µM and 1 to 10 µM, respectively.
With `COc1ccc(-n2nc(-c3ccc(C#N)c(F)c3)cc2C(=O)N2CCCC(N)C2)cc1` (stereo not shown) [Example 17, 4-(5-(3-Aminopiperidine-1-carbonyl)-1-(4-methoxyphenyl)-1H-pyrazol-3-yl)-2-fluorobenzonitrile], the IC50 on LSD1 was less than 0.5 µM; in the experiment on MV4;11 cells (setting [1]) it was 1 to 10 µM.
Regarding `CN1CCN(c2ccc(-n3nc(-c4ccc(C#N)c(F)c4)cc3C(=O)N3CCC[C@@H](N)C3)cc2)CC1` [Example 58, (R)-4-(5-(3-aminopiperidine-1-carbonyl)-1-(4-(4-methylpiperazin-1-yl)phenyl)-1H-pyrazol-3-yl)-2-fluorobenzonitrile 2,2,2-trifluoroacetate], the IC50 against LSD1 and in the experiment on MV4;11 cells (setting [2]) was less than 0.5 µM in each case.
For `Cn1cc2cc(-n3nc(-c4ccc(C#N)c(F)c4)cc3C(=O)N3CCCC(N)C3)ccc2n1` (stereo not shown) [Example 41, 4-(5-(3-Aminopiperidine-1-carbonyl)-1-(2-methyl-2H-indazol-5-yl)-1H-pyrazol-3-yl)-2-fluorobenzonitrile], the IC50 is less than 0.5 µM against LSD1 and 1 to 10 µM in the experiment on MV4;11 cells (setting [1]).
With `Cn1ncc2cc(-n3nc(C(=O)N4CCC[C@@H](N)C4)cc3-c3ccc(C#N)c(F)c3)ccc21` [Example 43, (R)-4-(3-(3-aminopiperidine-1-carbonyl)-1-(1-methyl-1H-indazol-5-yl)-1H-pyrazol-5-yl)-2-fluorobenzonitrile 2,2,2-trifluoroacetate], the IC50 at LSD1 and with MV4;11 cells (setting [2]) was less than 0.5 µM in each case.
For the compound `COc1ccc(-n2nc(-c3ccc(C#N)cc3)cc2C(=O)NC2CCCNC2)cc1` (stereo not shown) [Example 5, 3-(4-Cyanophenyl)-1-(4-methoxyphenyl)-N-(piperidin-3-yl)-1H-pyrazole-5-carboxamide 2,2,2-trifluoroacetate], the results for the IC50 at LSD1 and in the experiment on MV4;11 cells (setting [1]) were 1 to 10 µM and more than 10 µM, respectively.
For `COP(=O)(OC)OCCCOC1CCN(c2ccc(-n3nc(C(=O)N4CCC[C@@H](N)C4)cc3-c3ccc(C#N)c(F)c3)cc2)CC1` [Example 70, (R)-3-((1-(4-(3-(3-aminopiperidine-1-carbonyl)-5-(4-cyano-3-fluorophenyl)-1H-pyrazol-1-yl)phenyl)piperidin-4-yl)oxy)propyl dimethyl phosphate 2,2,2-trifluoroacetate], the IC50 is less than 0.5 µM on LSD1 and less than 0.5 µM in the experiment on MV4;11 cells (MV4;11 cells, Day 10 (re-seeded at Day 5 with fresh compound), 10-point dose curve 0 to 50 μM, read-out: Cell Titer Glo IC50 (10 d)).
As for `Cc1ccc(-n2nc(C(=O)NC3CCNC3)cc2-c2ccc(C#N)c(F)c2)cc1` (stereo not shown) [Example 10, 5-(4-Cyano-3-fluorophenyl)-N-(pyrrolidin-3-yl)-1-(p-tolyl)-1H-pyrazole-3-carboxamide], the IC50 at LSD1 was in the range of 0.5 to 1 µM; in the experiment on MV4;11 cells (setting [1]) it was 1 to 10 µM.
Consider `Cc1ccc(-n2nc(-c3ccc(C#N)c(F)c3)cc2C(=O)NC2CCNC2)cc1` (stereo not shown) [Example 15, 3-(4-Cyano-3-fluorophenyl)-N-(pyrrolidin-3-yl)-1-(p-tolyl)-1H-pyrazole-5-carboxamide], for which the IC50 against LSD1 lay in the range of 0.5 to 1 µM; in the experiment on MV4;11 cells (setting [1]), 1 to 10 µM.
`CN1CCN(c2ccc(-n3nc(C(=O)N4CCC[C@@H](N)C4)cc3-c3ccc(C#N)c(F)c3)c(F)c2)CC1=O` [Example 68, (R)-4-(3-(3-aminopiperidine-1-carbonyl)-1-(2-fluoro-4-(4-methyl-3-oxopiperazin-1-yl)phenyl)-1H-pyrazol-5-yl)-2-fluorobenzonitrile]: the IC50 at LSD1 and in the experiment on MV4;11 cells (setting [2]) was less than 0.5 µM in each case.
Take `Cn1cc(-c2ccc(-n3nc(C(=O)N4CCC[C@@H](N)C4)cc3-c3ccc(C#N)c(F)c3)cc2)cn1` [Example 66, (R)-4-(3-(3-aminopiperidine-1-carbonyl)-1-(4-(1-methyl-1H-pyrazol-4-yl)phenyl)-1H-pyrazol-5-yl)-2-fluorobenzonitrile 2,2,2-trifluoroacetate]: the IC50 against LSD1 and with MV4;11 cells (setting [2]) was less than 0.5 µM in each case.
In the case of `COc1ccc(-n2nc(NC(=O)[C@H]3CCNC3)cc2-c2ccc(C#N)c(F)c2)cc1` [Example 95, (S)-N-(5-(4-cyano-3-fluorophenyl)-1-(4-methoxyphenyl)-1H-pyrazol-3-yl)pyrrolidine-3-carboxamide 2,2,2-trifluoroacetate], the IC50 on LSD1 is less than 0.5 µM; with MV4;11 cells (setting [1]), 1 to 10 µM.
As for `COC1CCN(c2ccc(-n3nc(C(=O)N4CCC[C@@H](N)C4)cc3-c3ccc(C#N)c(F)c3)nc2)CC1` [Example 53, (R)-4-(3-(3-aminopiperidine-1-carbonyl)-1-(5-(4-methoxypiperidin-1-yl)pyridin-2-yl)-1H-pyrazol-5-yl)-2-fluorobenzonitrile 2,2,2-trifluoroacetate], the results for the IC50 against LSD1 and in the experiment on MV4;11 cells (setting [2]) were 1 to 10 µM and less than 0.5 µM, respectively.
The matching figures for `N#Cc1ccc(-c2cc(C(=O)N3CCC[C@@H](N)C3)nn2-c2ccc(N3CCC(=O)CC3)cc2)cc1F` [Example 46, (R)-4-(3-(3-aminopiperidine-1-carbonyl)-1-(4-(4-oxopiperidin-1-yl)phenyl)-1H-pyrazol-5-yl)-2-fluorobenzonitrile]: less than 0.5 µM and less than 0.5 µM.
